The target in assay [1] is T1, CK1α (Homo sapiens, UniProt P48729+Q96SW2).
T1 construct: effects of the compounds of the present disclosure on the expression of target proteins in cells; endogenous in cells; host or cells: human PBMCs (Milecell Biotechnologies)
The assay is described as follows: Western blot, degradation of substrate protein in hPBMCs. The format is cell-based.

Assay [2] addresses T2, IKZF1 (Homo sapiens, UniProt Q13422+Q96SW2).
T2 construct: effects of the compounds of the present disclosure on the expression of target proteins in cells; endogenous in cells; host or cells: human PBMCs (Milecell Biotechnologies)
The assay is described as above. The format is cell-based.

For assay [3], the target named is T3, IKZF2 (Homo sapiens, UniProt Q96SW2+Q9UKS7).
T3 construct: effects of the compounds of the present disclosure on the expression of target proteins in cells; endogenous in cells; host or cells: human PBMCs (Milecell Biotechnologies)
Described as above. The format is cell-based.

Assay [4] addresses T4, IKZF3 (Homo sapiens, UniProt Q96SW2+Q9UKT9).
T4 construct: effects of the compounds of the present disclosure on the expression of target proteins in cells; endogenous in cells; host or cells: human PBMCs (Milecell Biotechnologies)
Described as above. The format is cell-based.

The target of assay [5] is T5, WEE1 (Homo sapiens, UniProt P30291+Q96SW2).
T5 construct: effects of the compounds of the present disclosure on the expression of target proteins in cells; endogenous in cells; host or cells: human PBMCs (Milecell Biotechnologies)
The assay is described as above. The format is cell-based.

The test system of assay [6] is GSPT1. Described as above. The format is cell-based, Human.
Assay [7] deals with T6, human Cereblon WT GST-tagged protein (Homo sapiens, UniProt Q96SW2).
T6 construct: purchased CISBIO 64BDCRBNPEH
Description: CRBN-binding affinity, HTRF (CEREBLON BINDING kit). As to conditions: for inhibition at 0.5 µM: read-out: Inhibition Rate at 0.5 µM (%); for inhibition at 2 µM: read-out: Inhibition Rate at 2 µM (%).

The subject of assay [8] is Human multiple myeloma cell (MM.1S). The assay is described as follows: Tumor cell proliferation inhibition (CellTiter-Meiluncell luminescent cell viability assay). Conditions: Homo sapiens, MM1.S, 96 h; for inhibition at 0.01 µM: read-out: Inhibition Rate at 10 nM (%); for inhibition at 0.5 µM: read-out: Inhibition Rate at 500 nM (%).
The test system of assay [9] is Human multiple myeloma peripheral blood B lymphocyte cell (RPMI-8226). Described as above. As to conditions: RPMI-8226, 96 h; for inhibition at 0.01 µM: read-out: Inhibition Rate at 10 nM (%); for inhibition at 0.5 µM: read-out: Inhibition Rate at 500 nM (%).
Assay [10] relates to Human acute T lymphocytic leukemia cell (Molt4). Described as above. As to conditions: MOLT-4, 96 h; for inhibition at 0.01 µM: read-out: Inhibition Rate at 10 nM (%); for inhibition at 0.5 µM: read-out: Inhibition Rate at 500 nM (%).
Assay [11] concerns Human myeloid monocytic leukemia cell (MV-4-11). Described as above. As to conditions: MV4-11, 96 h; for inhibition at 0.01 µM: read-out: Inhibition Rate at 10 nM (%); for inhibition at 0.5 µM: read-out: Inhibition Rate at 500 nM (%).
Assay [12] deals with Human breast cancer cell (MCF-7). The description is as above. As to conditions: MCF7, 96 h; for inhibition at 0.01 µM: read-out: Inhibition Rate at 10 nM (%); for inhibition at 0.5 µM: read-out: Inhibition Rate at 500 nM (%).
In assay [13] the test system is Human T lymphocytic leukemia cell line: Jurkat. Described as above. Conditions: 96 h, read-out: Inhibitory activity (IC50, nM) on tumor cell proliferation, Jurkat.
Description: The tumor cells used herein were cultured in a cell culture medium listed in table 2 at 37°C in an incubator with 5% CO2. Prior to experimentation, all cell lines used were correctly identified by STR profiling, and tested negative for mycoplasma contamination using a mycoplasma detection kit through routine screenings.
The IC50 values of the compounds of the present disclosure (including the compounds in Table 1 and Examples) were determined using the CellTiter-Meiluncell Luminescent Cell Viability Assay Kit from Dalian Meilun Biotech Co., Ltd. The detailed procedure is as follows: Tumor cells were seeded in 96-well cell culture plates at the densities specified in Table 3. On the following day, the test compounds of the present disclosure were subjected to serial dilution. The dilution can be performed according to one of the following two methods: • (1) The first dilution method: The test compounds of the present disclosure (including the compounds in Table 1 and Examples) were subjected to 5-fold serial dilutions starting from a highest concentration of 2000 µM, resulting in a total of 9 concentrations from high to low (2000, 400, 80, 16, 3.2, 0.64, 0.128, 0.0256, 0.00512 µM). Subsequently, 0.5 µL of the test compound dilution was transferred into the 96-well plate containing the cells, with each well containing 100 µL of cell culture medium. […] Into the 96-well plate, the diluted test compounds and corresponding detection reagents were added, resulting in final test compound concentrations of 500 nM and 10 nM, respectively. The experimental procedure is described below using the diluted 2 µM test compound as an example.
0.5 µL of the aforementioned diluted compound of the present disclosure (including the compounds in Table 1 and Examples) was added to the seeded cells in 100 µL of medium, yielding a final test compound concentration of 10 nM. After the cells were treated with the compounds of the present disclosure for a specified period, the cell viability assay reagent was added to the culture medium according to the kit's instructions to determine cell viability. […] All controls were treated using the same procedure as the compounds of the present disclosure. The growth inhibition curves for the compounds of the present disclosure were plotted using Prism GraphPad software, and the IC50 values were calculated therefrom.
Assay [14] has as its system Human acute myeloid leukemia cell line: Kasumi-1. The description is as above. Conditions: Kasumi 1, 96 h.
The mark [15] stands for this setting: 24 hours treatment, compounds at 50 nM and 500 nM (concentration behind the class not stated).
Where [16] appears, read: Western blot, 24 hours of compound treatment, compounds tested at 50 nM and 500 nM (concentration for the table not stated).

Molecules are shown by their SMILES.

T5 sequence (P30291 whole entry): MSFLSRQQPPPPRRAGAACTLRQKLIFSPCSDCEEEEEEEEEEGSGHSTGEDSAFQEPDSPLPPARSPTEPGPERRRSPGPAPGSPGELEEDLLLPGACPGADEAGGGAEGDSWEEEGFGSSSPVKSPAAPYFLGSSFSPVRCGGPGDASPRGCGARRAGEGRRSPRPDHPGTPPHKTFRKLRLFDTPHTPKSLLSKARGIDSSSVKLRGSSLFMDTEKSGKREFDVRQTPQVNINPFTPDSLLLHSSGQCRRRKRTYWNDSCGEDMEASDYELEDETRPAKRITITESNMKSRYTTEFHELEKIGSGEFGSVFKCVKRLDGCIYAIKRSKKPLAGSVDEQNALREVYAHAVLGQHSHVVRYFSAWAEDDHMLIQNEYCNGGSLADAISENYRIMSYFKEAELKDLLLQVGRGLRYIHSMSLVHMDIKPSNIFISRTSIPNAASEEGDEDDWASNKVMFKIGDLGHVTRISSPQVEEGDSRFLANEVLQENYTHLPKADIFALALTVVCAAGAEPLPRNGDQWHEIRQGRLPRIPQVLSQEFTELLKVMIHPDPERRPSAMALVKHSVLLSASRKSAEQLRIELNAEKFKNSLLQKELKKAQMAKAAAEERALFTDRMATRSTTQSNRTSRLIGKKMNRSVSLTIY
T5 sequence (Q96SW2 whole entry): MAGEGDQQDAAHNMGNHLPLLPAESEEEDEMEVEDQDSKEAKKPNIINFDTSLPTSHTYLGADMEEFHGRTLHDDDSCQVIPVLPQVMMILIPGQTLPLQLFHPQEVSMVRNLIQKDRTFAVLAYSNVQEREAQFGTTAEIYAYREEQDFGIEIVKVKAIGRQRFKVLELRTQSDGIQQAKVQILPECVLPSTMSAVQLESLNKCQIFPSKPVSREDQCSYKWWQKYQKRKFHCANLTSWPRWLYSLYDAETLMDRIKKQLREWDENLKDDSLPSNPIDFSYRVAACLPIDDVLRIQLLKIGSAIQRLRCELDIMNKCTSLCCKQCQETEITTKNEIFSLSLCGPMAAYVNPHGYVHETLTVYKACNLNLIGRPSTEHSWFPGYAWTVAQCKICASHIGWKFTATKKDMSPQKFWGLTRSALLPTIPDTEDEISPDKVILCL
T5 sequence (Q16531 whole entry partner): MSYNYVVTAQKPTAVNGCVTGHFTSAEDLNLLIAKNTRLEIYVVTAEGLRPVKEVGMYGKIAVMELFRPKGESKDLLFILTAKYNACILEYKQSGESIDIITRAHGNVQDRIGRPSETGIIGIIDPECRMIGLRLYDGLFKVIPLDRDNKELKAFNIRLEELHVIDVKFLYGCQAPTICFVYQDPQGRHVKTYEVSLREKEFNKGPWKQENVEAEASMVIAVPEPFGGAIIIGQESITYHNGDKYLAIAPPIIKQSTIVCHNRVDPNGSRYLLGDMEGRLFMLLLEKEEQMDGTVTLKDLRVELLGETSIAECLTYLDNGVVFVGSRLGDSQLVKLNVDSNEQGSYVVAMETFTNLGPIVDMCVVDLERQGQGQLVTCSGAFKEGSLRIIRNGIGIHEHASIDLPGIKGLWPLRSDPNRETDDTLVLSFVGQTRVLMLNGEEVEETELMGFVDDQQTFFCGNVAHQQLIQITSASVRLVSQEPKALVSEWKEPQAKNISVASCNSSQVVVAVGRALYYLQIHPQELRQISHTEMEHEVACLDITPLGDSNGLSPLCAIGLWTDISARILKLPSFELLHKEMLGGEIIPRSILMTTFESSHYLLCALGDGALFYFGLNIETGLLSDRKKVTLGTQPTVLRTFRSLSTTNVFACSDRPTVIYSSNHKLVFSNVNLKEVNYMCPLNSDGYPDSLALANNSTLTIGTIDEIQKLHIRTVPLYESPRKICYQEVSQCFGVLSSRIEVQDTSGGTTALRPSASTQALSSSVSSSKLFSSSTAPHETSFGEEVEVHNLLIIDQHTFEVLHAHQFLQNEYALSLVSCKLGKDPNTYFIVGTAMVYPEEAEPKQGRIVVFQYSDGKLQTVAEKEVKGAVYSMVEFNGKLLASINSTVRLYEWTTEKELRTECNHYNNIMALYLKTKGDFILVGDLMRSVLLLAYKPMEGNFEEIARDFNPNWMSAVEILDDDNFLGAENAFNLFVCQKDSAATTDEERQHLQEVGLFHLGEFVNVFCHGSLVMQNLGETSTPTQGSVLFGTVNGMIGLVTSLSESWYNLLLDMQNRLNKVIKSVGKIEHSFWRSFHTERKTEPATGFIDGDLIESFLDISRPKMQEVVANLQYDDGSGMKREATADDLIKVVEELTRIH
T2 sequence (Q13422 whole entry): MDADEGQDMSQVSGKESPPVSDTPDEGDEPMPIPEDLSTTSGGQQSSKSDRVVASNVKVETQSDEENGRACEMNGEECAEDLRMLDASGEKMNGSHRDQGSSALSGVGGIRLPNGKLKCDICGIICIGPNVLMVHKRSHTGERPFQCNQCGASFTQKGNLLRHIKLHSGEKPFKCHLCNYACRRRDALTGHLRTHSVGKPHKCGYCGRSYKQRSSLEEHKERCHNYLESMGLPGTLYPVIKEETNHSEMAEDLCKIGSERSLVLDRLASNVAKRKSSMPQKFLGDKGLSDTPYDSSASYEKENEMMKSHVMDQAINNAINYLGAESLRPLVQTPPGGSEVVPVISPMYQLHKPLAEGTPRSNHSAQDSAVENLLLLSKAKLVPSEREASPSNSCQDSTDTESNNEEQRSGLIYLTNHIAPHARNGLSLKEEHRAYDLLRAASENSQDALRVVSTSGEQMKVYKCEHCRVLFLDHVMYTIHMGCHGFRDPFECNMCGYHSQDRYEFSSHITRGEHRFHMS
T2 sequence (Q96SW2 whole entry): as the sequence (Q96SW2 whole entry) above
T2 sequence (Q16531 whole entry partner): as the sequence (Q16531 whole entry partner) above
T6 sequence (Q96SW2 whole entry): as the sequence (Q96SW2 whole entry) above
T4 sequence (Q9UKT9 whole entry): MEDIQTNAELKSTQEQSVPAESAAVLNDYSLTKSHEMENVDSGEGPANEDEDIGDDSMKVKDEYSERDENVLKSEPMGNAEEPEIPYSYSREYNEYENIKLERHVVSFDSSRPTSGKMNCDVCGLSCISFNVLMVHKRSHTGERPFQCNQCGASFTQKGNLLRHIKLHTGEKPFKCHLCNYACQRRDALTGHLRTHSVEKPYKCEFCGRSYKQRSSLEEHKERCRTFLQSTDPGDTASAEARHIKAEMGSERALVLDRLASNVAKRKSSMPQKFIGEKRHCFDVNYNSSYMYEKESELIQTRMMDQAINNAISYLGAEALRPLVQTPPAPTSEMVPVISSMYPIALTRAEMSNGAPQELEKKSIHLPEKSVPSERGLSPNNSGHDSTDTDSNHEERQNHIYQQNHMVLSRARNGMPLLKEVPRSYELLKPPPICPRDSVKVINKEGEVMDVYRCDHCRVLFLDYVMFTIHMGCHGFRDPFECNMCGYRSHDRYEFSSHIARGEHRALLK
T4 sequence (Q96SW2 whole entry): as the sequence (Q96SW2 whole entry) above
T4 sequence (Q16531 whole entry partner): as the sequence (Q16531 whole entry partner) above
T3 sequence (Q9UKS7 whole entry): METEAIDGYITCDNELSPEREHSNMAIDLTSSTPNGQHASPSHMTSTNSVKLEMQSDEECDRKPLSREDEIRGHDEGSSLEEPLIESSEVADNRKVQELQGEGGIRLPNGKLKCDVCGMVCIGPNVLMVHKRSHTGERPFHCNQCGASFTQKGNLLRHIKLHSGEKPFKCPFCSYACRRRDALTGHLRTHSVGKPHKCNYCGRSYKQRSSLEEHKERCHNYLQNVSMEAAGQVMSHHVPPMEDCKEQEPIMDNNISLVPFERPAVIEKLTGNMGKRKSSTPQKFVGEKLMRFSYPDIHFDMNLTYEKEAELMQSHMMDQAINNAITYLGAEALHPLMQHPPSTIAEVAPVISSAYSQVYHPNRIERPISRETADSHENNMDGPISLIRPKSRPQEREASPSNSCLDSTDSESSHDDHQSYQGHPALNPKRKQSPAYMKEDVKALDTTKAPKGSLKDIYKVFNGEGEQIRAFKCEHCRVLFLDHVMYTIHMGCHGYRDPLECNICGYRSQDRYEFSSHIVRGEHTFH
T3 sequence (Q96SW2 whole entry): as the sequence (Q96SW2 whole entry) above
T3 sequence (Q16531 whole entry partner): as the sequence (Q16531 whole entry partner) above
T1 sequence (P48729 whole entry): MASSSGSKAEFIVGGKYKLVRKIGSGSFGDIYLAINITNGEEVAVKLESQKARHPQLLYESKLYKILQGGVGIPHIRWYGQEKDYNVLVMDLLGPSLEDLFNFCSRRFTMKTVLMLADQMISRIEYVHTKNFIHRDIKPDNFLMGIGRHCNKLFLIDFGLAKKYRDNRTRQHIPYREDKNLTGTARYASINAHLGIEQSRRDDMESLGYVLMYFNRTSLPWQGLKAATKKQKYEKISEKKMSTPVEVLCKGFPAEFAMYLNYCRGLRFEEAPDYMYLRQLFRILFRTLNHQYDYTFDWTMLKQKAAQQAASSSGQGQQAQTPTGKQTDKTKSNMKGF
T1 sequence (Q96SW2 whole entry): as the sequence (Q96SW2 whole entry) above
T1 sequence (Q16531 whole entry partner): as the sequence (Q16531 whole entry partner) above

Consider `O=C1CCC(N2Cc3cc(CN4CC=C(c5cccc6c(F)cccc56)CC4)ccc3C2=S)C(=O)N1` (stereo not drawn) [GT-09276, 3-(5-((4-(5-fluoronaphthalen-1-yl)-3,6-dihydropyridin-1(2H)-yl)methyl)-1-thioxoisoindolin-2-yl)piperidine-2,6-dione], for which, in assay [1] (setting [15]), the “CK1α substrate protein remaining %” value was “A (0% ≤ substrate protein remaining % ≤ 80%)”. Moreover, the “IKZF 1 substrate protein remaining %” value in assay [2] (setting [15]) is given as “B (80%< substrate protein remaining %≤ 100%)”. The “IKZF2 substrate protein remaining %” value in [3] (setting [15]) is listed as “A (0% ≤ substrate protein remaining % ≤ 80%)”. The “IKZF3 substrate protein remaining %” value in assay [4] (setting [15]) is on record as “A (0% ≤ substrate protein remaining % ≤ 80%)”. Further, the “Wee1 substrate protein remaining %” value in assay [5] (setting [15]) was “A (0% ≤ substrate protein remaining % ≤ 80%)”. In addition, in assay [6] (setting [15]), the “GSPT1 substrate protein remaining %” value is on record as “A (0% ≤ substrate protein remaining % ≤ 80%)”. Further, the inhibition at 0.5 µM in [7] was 40 to 53%; in [8], 80 to 100%; in [9] it was 70 to 80%; in assay [10], 70 to 80%; in assay [11], 80 to 100%; in assay [12], 80 to 100%. The inhibition at 2 µM in assay [7] was in the range of 80 to 100%. Further, the inhibition at 0.01 µM lay within 70 to 80% in assay [8]; 20 to 30% in [9]; 70 to 80% in assay [10]; 80 to 100% in assay [11]; 30 to 40% in [12].
As for `O=C1CCC(N2Cc3cc(CN4CCN(c5cccc(Cl)c5Cl)CC4)ccc3C2=S)C(=O)N1` (stereo not drawn) [GT-04474, 3-(5-((4-(2,3-dichlorophenyl)piperazin-1-yl)methyl)-1-thioxoisoindolin-2-yl)piperidine-2,6-dione], the “CK1α substrate protein remaining %” value in assay [1] (setting [16]) is listed as “B (80%< substrate protein remaining %≤ 100%)”. Also, in assay [2] (setting [16]), the “IKZF 1 substrate protein remaining %” value is given as “A (0% ≤ substrate protein remaining % ≤ 80%)”. In addition, the “IKZF2 substrate protein remaining %” value in [3] (setting [16]) is recorded as “A (0% ≤ substrate protein remaining % ≤ 80%)”. Further, the “IKZF3 substrate protein remaining %” value in assay [4] (setting [16]) was “A (0% ≤ substrate protein remaining % ≤ 80%)”. Further, in [5] (setting [16]), the “Wee1 substrate protein remaining %” value is listed as “A (0% ≤ substrate protein remaining % ≤ 80%)”. In addition, the “GSPT1 substrate protein remaining %” value in [6] (setting [16]) was “A (0% ≤ substrate protein remaining % ≤ 80%)”. Further, the IC50 in assay [7] (CRBN binding, HTRF, 3 hours at room temperature, read-out: HTRF IC50) was in the range of 0.5 to 1 µM; in assay [13] it was 50 to 100 nM.
For the molecule `O=C1CCC(N2Cc3cc(CN4CC=C(c5cncc(Cl)c5Cl)CC4)ccc3C2=S)C(=O)N1` (stereo not drawn) [GT-08489, 3-(5-((4,5-dichloro-3',6'-dihydro-[3,4'-bipyridin]-1'(2'H)-yl)methyl)-1-thioxoisoindolin-2-yl)piperidine-2,6-dione], the “CK1α substrate protein remaining %” value in [1] (setting [16]) is listed as “B (80%< substrate protein remaining %≤ 100%)”. Moreover, the “IKZF 1 substrate protein remaining %” value in assay [2] (setting [16]) was “B (80%< substrate protein remaining %≤ 100%)”. Further, the “IKZF2 substrate protein remaining %” value in assay [3] (setting [16]) was “A (0% ≤ substrate protein remaining % ≤ 80%)”. Further, the “IKZF3 substrate protein remaining %” value in assay [4] (setting [16]) is “A (0% ≤ substrate protein remaining % ≤ 80%)”. In addition, in [5] (setting [16]), the “Wee1 substrate protein remaining %” value is listed as “A (0% ≤ substrate protein remaining % ≤ 80%)”. Besides, the “GSPT1 substrate protein remaining %” value in [6] (setting [16]) is recorded as “A (0% ≤ substrate protein remaining % ≤ 80%)”. In addition, the inhibition at 0.5 µM lay within 60 to 80% in assay [7]; 80 to 100% in assay [8]; 70 to 80% in assay [9]; 80 to 100% in [10]; 80 to 100% in [11]; 50 to 60% in assay [12]. The inhibition at 2 µM in assay [7] lay within 80 to 100%. The inhibition at 0.01 µM in assay [8] lay within 10 to 20%; in assay [9] it was 0 to 5%; in assay [10] it was 0 to 5%; in assay [11], 30 to 40%.
On to `O=C1CCC(N2Cc3c(CN4CCN(c5cccc(F)c5F)CC4)cccc3C2=S)C(=O)N1` (stereo not drawn) [GT-08268, 3-(4-((4-(2,3-difluorophenyl)piperazin-1-yl)methyl)-1-thioxoisoindolin-2-yl)piperidine-2,6-dione], for which the “CK1α substrate protein remaining %” value in assay [1] (setting [16]) was “B (80%< substrate protein remaining %≤ 100%)”. For the same molecule, the “IKZF 1 substrate protein remaining %” value in [2] (setting [16]) is given as “B (80%< substrate protein remaining %≤ 100%)”. For the same molecule, the “IKZF2 substrate protein remaining %” value in assay [3] (setting [16]) is “B (80%< substrate protein remaining %≤ 100%)”. The “IKZF3 substrate protein remaining %” value in [4] (setting [16]) is given as “B (80%< substrate protein remaining %≤ 100%)”. In [5] (setting [16]), the “Wee1 substrate protein remaining %” value is given as “A (0% ≤ substrate protein remaining % ≤ 80%)”. Further, the “GSPT1 substrate protein remaining %” value in assay [6] (setting [16]) is “A (0% ≤ substrate protein remaining % ≤ 80%)”. Besides, the inhibition at 0.5 µM lay within 40 to 53% in assay [7], 60 to 80% in assay [11] and 50 to 60% in [14] (read-out: Inhibition Rate at 500 nM (%)). For the same molecule, in [7], the inhibition at 2 µM fell in the range of 60 to 80%. Further, the results for the inhibition at 0.01 µM in assay [11] and in assay [14] (read-out: Inhibition Rate at 10 nM (%)) were 60 to 80% and 50 to 60%, respectively.
Consider `O=C1CCC(N2Cc3cc(CN4CC=C(c5ncccc5F)CC4)ccc3C2=S)C(=O)N1` (stereo not drawn) [GT-08491, 3-(5-((3-fluoro-3',6'-dihydro-[2,4'-bipyridin]-1'(2'H)-yl)methyl)-1-thioxoisoindolin-2-yl)piperidine-2,6-dione], for which, in assay [1] (setting [16]), the “CK1α substrate protein remaining %” value is given as “B (80%< substrate protein remaining %≤ 100%)”. For the same molecule, in assay [2] (setting [16]), the “IKZF 1 substrate protein remaining %” value was “B (80%< substrate protein remaining %≤ 100%)”. Further, in assay [3] (setting [16]), the “IKZF2 substrate protein remaining %” value is recorded as “B (80%< substrate protein remaining %≤ 100%)”. Moreover, the “IKZF3 substrate protein remaining %” value in assay [4] (setting [16]) was “B (80%< substrate protein remaining %≤ 100%)”. Further, the “Wee1 substrate protein remaining %” value in [5] (setting [16]) is given as “A (0% ≤ substrate protein remaining % ≤ 80%)”. The “GSPT1 substrate protein remaining %” value in assay [6] (setting [16]) is listed as “A (0% ≤ substrate protein remaining % ≤ 80%)”. Besides, the inhibition at 0.5 µM fell in the range of 80 to 100% in assay [7]; 80 to 100% in [8]; 70 to 80% in [9]; 80 to 100% in [10]; 80 to 100% in assay [11]; 40 to 50% in assay [12]. In [7], the inhibition at 2 µM was in the range of 80 to 100%. For the same molecule, the inhibition at 0.01 µM in assay [8] fell in the range of 10 to 20%; in assay [9], 10 to 20%; in assay [10] it was 20 to 30%; in assay [11], 18 to 25%.
On to `O=C1CCC(N2Cc3cc(CN4CC=C(c5n[nH]c6cc(F)ccc56)CC4)ccc3C2=S)C(=O)N1` (stereo not drawn) [GT-09270, 3-(5-((4-(6-fluoro-1H-indazol-3-yl)-3,6-dihydropyridin-1(2H)-yl)methyl)-1-thioxoisoindolin-2-yl)piperidine-2,6-dione], for which, in [1] (setting [15]), the “CK1α substrate protein remaining %” value was “A (0% ≤ substrate protein remaining % ≤ 80%)”. In addition, the “IKZF 1 substrate protein remaining %” value in [2] (setting [15]) is “A (0% ≤ substrate protein remaining % ≤ 80%)”. In addition, the “IKZF2 substrate protein remaining %” value in [3] (setting [15]) was “B (80%< substrate protein remaining %≤ 100%)”. In addition, the “IKZF3 substrate protein remaining %” value in assay [4] (setting [15]) is listed as “B (80%< substrate protein remaining %≤ 100%)”. Also, the “Wee1 substrate protein remaining %” value in [5] (setting [15]) was “A (0% ≤ substrate protein remaining % ≤ 80%)”. Besides, the “GSPT1 substrate protein remaining %” value in assay [6] (setting [15]) is recorded as “B (80%< substrate protein remaining %≤ 100%)”. The inhibition at 0.5 µM in [7] was 60 to 80%; in [8], 80 to 100%; in assay [9] it was 70 to 80%; in assay [10], 80 to 100%; in assay [11], 80 to 100%; in assay [12], 70 to 80%. The inhibition at 2 µM in [7] lay in the range of 80 to 100%. For the same molecule, the inhibition at 0.01 µM in assay [8] is 50 to 60%; in assay [9], 20 to 30%; in [10], 70 to 80%; in [11], 80 to 100%; in assay [12], 10 to 20%.

For the origin of these results see patent EP4745135A1 (Gluetacs Therapeutics (Shanghai) Co., Ltd., priority 2023, dated 2025).
